# Assays:
# S. aureus ATCC 29213 [1] = assay: Chessboard method, I.12 combined with antibiotics (FIC); type: cell-based, Staphylococcus aureus; conditions: I.12 and ciprofloxacin; FIC≦0.5 = synergy
# Description: The antibiotics used are erythromycin, ciprofloxacin, vancomycin, tetracycline and oxacillin.
# The sensitivity of S. aureus ATCC 29213 to the combination of the antibiotic molecules ciprofloxacin and the compound I.12 and the effect of each of the two molecules on the activity of the other are determined using the chessboard method. This method is carried out in a round-bottomed 96-well plate (12 columns by 8 rows). Various concentrations of ciprofloxacin and of compound I.12 are obtained by a dilution of their stock solutions in MH II broth. Fifty microliters of the dilution range of the compound I.12 are deposited in each well of columns 1 to 10, each row corresponding to a dilution of this compound. Fifty microliters of the dilution range of ciprofloxacin are deposited in the wells of columns 2 to 10, each column corresponding to a dilution. This same dilution range of ciprofloxacin is also prepared in column 11. Fifty microliters of MH II broth are deposited in the wells of columns 1 and 11. Finally, 100 μl of bacterial suspension at 10^6 CFU (Colony-Forming Units)/ml are introduced in each well of columns 1 to 10 (final concentration of bacteria: 5×10^5 CFU/ml).
# The plate is read visually. […] The fractional inhibitory concentration (FIC) is calculated by adding the FIC of the compound I.12 (FICI.12) and the FIC of ciprofloxacin (FICcipro) according to the following formulae: […]
# [2] = system: S. aureus K 1712 (strain without NorA pump); assay: Chessboard method, I.12 combined with antibiotics; type: cell-based, Staphylococcus aureus; conditions: each ATB
# S. aureus ATCC 29213 [3] = assay: Time kill curve method, I.12/ciprofloxacin combination; type: cell-based, Staphylococcus aureus; conditions: ciprofloxacin (0.5 mg/ml and 0.125 mg/m)/I.12 (31 μM); mean of two experiments
# Description: The time kill curve is performed in 6-well plates. Each well contains 5 ml of MH II broth inoculated with bacteria in the exponential growth phase (final concentrations at 10^6 CFU/ml). The various bacterial growth conditions tested are: • Well 1: 0.5 mg/ml of ciprofloxacin +31 μM of I.12. • Well 2: 0.125 mg/ml of ciprofloxacin +31 μM of I.12. • Well 3: 0.5 mg/ml of ciprofloxacin. • Well 4: 0.125 mg/ml of ciprofloxacin. • Well 5: 31 μM of I.12. • Well 6: No molecule.
# The cultures are incubated at 37° C. with shaking at 400 rpm. Samples are taken every hour for the first 6 hours, and at 22 hours. The live bacteria are counted by culturing on a dish after dilutions of the cultures.
# [4] = system: Enterococcus faecium (VSE, VRE strains); assay: Spectrum of activity: I.12 + ciprofloxacin, E. faecium strains; type: cell-based; conditions: for Number of sensitive strains / Percentage of sensitive strains: ciprofloxacin + I.12
# Description: (§1) The antibiotic used is ciprofloxacin with the same dilution as in section B.1. The compound I.12 is also used under the same conditions as in section B.1.
# (§2) Fifty-six strains belonging to 19 genera were used (TABLE 6).
# (§3) Nine of these strains are ATCC strains and 47 are of clinical origins and come from the Centre de Biologie Est [Eastern Biological Center] in Bron. Eighteen staphylococcal strains are tested: 1 strain of S. epidermidis, 2 strains of S. aureus, 10 MRSA (methicillin-resistant S. aureus) and 5 VISA (vancomycin intermediate sensitivity S. aureus). Sixteen enterococcal strains are also tested, i.e. 9 E. faecium and 7 E. faecalis. The latter 2 species grouped together 2 vancomycin-sensitive strains (1 per species), and 14 resistant strains (VRE, respectively 8 E. faecium and 6 E. faecalis).
# (§4) This potentiating effect is evaluated as previously. However, the growth of certain microorganisms (Streptococcus pneumoniae, S. agalactiae, S. pyogenes, Corynebacterium amycolatum and Listeria monocytogenes) in liquid medium requires defibrinated horse blood lysed in 50% of sterile osmosed water via a succession of 7 freezings (−20° C.)/thawing (ambient temperature). The 50% blood is then centrifuged at ambient temperature at 12 000 rpm for 20 min. The supernatant is introduced into sterile, additive-free MH II in an amount of 5% by volume.
# [5] = system: S. aureus 1199B (strain overexpressing NorA); assay: Chessboard method, I.12 combined with antibiotics; type: cell-based, Staphylococcus aureus
# VISA (strain V4) = assay: Chessboard method, I.12 combined with ciprofloxacin (FIC); type: cell-based, Staphylococcus aureus; conditions: I.12 and ciprofloxacin; FIC≦0.5 = synergy
# MRSA (strain ST07 1012) = assay: as above; type: cell-based, Staphylococcus aureus; conditions: I.12 and ciprofloxacin; FIC≦0.5 = synergy
# [6] = system: Staphylococcus aureus (MSSA, MRSA, VISA strains); assay: Spectrum of activity: I.12 + ciprofloxacin, S. aureus strains; type: cell-based; conditions: for Number of sensitive strains / Percentage of sensitive strains: ciprofloxacin + I.12
# Description: as §1, §2, §3, §4
# [7] = system: Fifty-six strains belonging to 19 genera; assay: Spectrum of activity: potentiating effect of compound I.12 on ciprofloxacin (MIC method); type: cell-based
# Description: as §1, §2, §3, §4
# [8] = system: Staphylococcus epidermidis; assay: Spectrum of activity: I.12 + ciprofloxacin, S. epidermidis; type: cell-based
# Description: as §1, §2, §3, §4
# [9] = system: Enterococcus faecalis (VSE, VRE strains); assay: Spectrum of activity: I.12 + ciprofloxacin, E. faecalis strains; type: cell-based; conditions: for Number of sensitive strains / Percentage of sensitive strains: ciprofloxacin + I.12
# Description: as §1, §2, §3, §4
# S. aureus ATCC 29213 [10] = assay: Antibiotic activity of the compounds alone (MIC technique); type: cell-based, Staphylococcus aureus; conditions: compound alone, 18-24 h at 37° C., MH II medium
# Description: All the compounds according to the invention are solubilized in dimethylsufoxide (DMSO). For each compound, the highest concentration usable during the experiments is determined by taking into account the toxicity of the solvent (final concentration of DMSO in contact with the bacteria of less than 3%) and also the capacity of the compound to solubilize in Mueller Hinton II (MH II) media. This is because some compounds precipitate during dilutions of solutions based on DMSO in MH II media. The strain for screening the compounds is a strain of Staphylococcus aureus from the American Type Culture Collection or ATCC, called S. aureus ATCC 29213. The antibiotic activity of a molecule is evaluated using the MIC technique. The MIC of a molecule is determined in a 96-well microplate, in MH II liquid medium according to the protocol of the CASFM and of the CLSI. A dilution range of the molecule is prepared beforehand in MH II medium. In each well, 100 μl of a bacterial suspension of SI aureus ATCC 29213 (10^6 CFU/ml), 50 μl of the dilution range of the compound tested and 50 μl of MH II are mixed. After 18-24 h of incubation at 37° C., the molecules having shown an inhibition of bacterial growth are recorded as having an antibiotic activity. The lowest concentration of compound for which no bacterial growth is observed is the MIC (lowest concentration inhibiting the growth of the bacteria).
# [11] = system: S. aureus ATCC 29213, 1199b, 1199, K1712, 8325.4; assay: Supplemental EPI tests: potentiation of antibiotic MICs; type: cell-based, Staphylococcus aureus
# Description: (§5) The molecules of which the EPI effect was evaluated are: I.1 (24 μmol/l), I.6 (16 μmol/l) and I.14 (31 μmol/l).
# (§6) The antibiotics with which these molecules were combined are: ciprofloxacin and norfloxacin; tetracycline; oxacillin; erythromycin and vancomycin.
# (§7) The bacterial strains tested are S. aureusATCC 29213; S. aureus 1199b overexpressing NorA and also S. aureus 1199, the strain from which it is derived; S. aureus K1712 not expressing NorA and also S. aureus 8325.4 (the strain from which it is derived).
# (§8) The methodology used is based on the MIC technique described previously.
# [12] = system: S. aureus 1199b overexpressing NorA; assay: as above; type: cell-based, Staphylococcus aureus; conditions: for potentiating activity in the presence of tetracycline and of erythromycin: 1199b strain
# Description: as §5, §6, §7, §8
# [13] = system: S. aureus K1712 not expressing NorA; assay: as above; type: cell-based, Staphylococcus aureus; conditions: strain not expressing NorA
# Description: as §5, §6, §7, §8
smiles,measurement,setting,value
"COc1cc(O)c2c(C)c(-c3ccccc3)c(=O)[nH]c2c1 [compound I.12, 5-hydroxy-7-methoxy-4-methyl-3-phenylquinolin-2(1H)-one]",FIC (fractional inhibitory concentration),S. aureus ATCC 29213 [1],≤ 0.5
same,interaction with antibiotics (chessboard),[2],absence of interaction
same,reduction of CFU/ml of the combination versus the most active molecule alone (synergistic effect),S. aureus ATCC 29213 [3],≥ 2 log10
same,"sensitive strains / strains tested, combination with ciprofloxacin",[4]; E. faecium (the 5 being VREs),5/9
same,Number of sensitive strains,"[4]; E. faecium VRE, 8 tested",5
same,Percentage of sensitive strains,[4]; E. faecium VRE,62.5%
same,Number of sensitive strains,"[4]; E. faecium VSE, 1 tested",0
same,Percentage of sensitive strains,[4]; E. faecium VSE,0
same,factor by which the ciprofloxacin MIC is divided in the presence of the compound,"[4]; two E. faecium VRE strains not listed in the 28, weakly sensitive",≥ 2
same,interaction with antibiotics (chessboard),[5],highly synergistic combination
same,FIC (fractional inhibitory concentration),VISA (strain V4),≤ 0.5
same,FIC (fractional inhibitory concentration),MRSA (strain ST07 1012),≤ 0.5
same,Number of sensitive strains,"[6]; MRSA, 10 strains tested",10
same,Percentage of sensitive strains,[6]; MRSA,100%
same,Number of sensitive strains,"[6]; MSSA, 2 strains tested",2
same,Percentage of sensitive strains,[6]; MSSA,100%
same,"sensitive strains / strains tested, combination with ciprofloxacin",[6]; S. aureus sensitive to conventional antibiotics,2/2
same,"sensitive strains / strains tested, combination with ciprofloxacin",[6]; S. aureus with reduced sensitivity to vancomycin (VISA),5/5
same,Number of sensitive strains,"[6]; VISA, 5 strains tested",5
same,Percentage of sensitive strains,[6]; VISA,100%
same,"sensitive strains / strains tested, combination with ciprofloxacin",[6]; methicillin-resistant S. aureus (MRSA),10/10
same,number of strains more sensitive to ciprofloxacin when the compound is combined,[7]; among the 56 bacterial strains tested,28
same,factor by which the ciprofloxacin MICs are divided in the presence of the compound,"[7]; each of the 28 sensitive strains, except one",16
same,factor by which the ciprofloxacin MIC is divided in the presence of the compound,[7]; the one exception among the 28 sensitive strains,≥ 4
same,"sensitive strains / strains tested, combination with ciprofloxacin",[8]; S. epidermidis,1/1
same,Number of sensitive strains,"[8]; S. epidermidis sensitive strain, 1 tested, ciprofloxacin + I.12",1
same,Percentage of sensitive strains,"[8]; S. epidermidis sensitive strain, ciprofloxacin + I.12",100%
same,"sensitive strains / strains tested, combination with ciprofloxacin",[9]; E. faecalis (4 are VREs),5/7
same,Number of sensitive strains,"[9]; E. faecalis VRE, 6 tested",4
same,Percentage of sensitive strains,[9]; E. faecalis VRE,67%
same,Number of sensitive strains,"[9]; E. faecalis VSE, 1 tested",1
same,Percentage of sensitive strains,[9]; E. faecalis VSE,100%
"COc1cc(O)c2c3c(c(=O)[nH]c2c1)CCC3 [compound I.15, 2,3-dihydro-9-hydroxy-7-methoxy-1H-cyclopenta[c]quinolin-4(5H)-one]",melting point,,189 to 190 °C
"Cc1c(-c2ccccc2)c(=O)[nH]c2cc(O)cc(O)c12 [compound I.13, 5,7-dihydroxy-4-methyl-3-phenylquinolin-2(1H)-one]","antibiotic activity alone, concentration (MIC)",S. aureus ATCC 29213 [10],155 µM
"COc1cc(OC)c2c(C)c(-c3cccc(Cl)c3)c(=O)[nH]c2c1 [compound I.1, 3-(3-chlorophenyl)-5,7-dimethoxy-4-methylquinolin-2(1H)-one]",EPI effects of the compound in combination with antibiotics,[11]; I.1 at 24 μmol/l,minor
"COc1cc(O)c2c(C)c(Cc3ccccc3)c(=O)[nH]c2c1 [compound I.14, 3-benzyl-5-hydroxy-7-methoxy-4-methylquinolin-2(1H)-one]",melting point,,> 278 °C (dec.)
same,potentiating activity in the presence of tetracycline and of erythromycin,[12],weak activity
same,improvement in the MICs (fold) in the presence of norfloxacin and of ciprofloxacin,"[11]; I.1 24 μmol/l, I.6 16 μmol/l, I.14 31 μmol/l",results are identical
"COc1cc(OC)c2c(C)c(-c3c[nH]c4ccccc34)c(=O)[nH]c2c1 [compound I.6, 3-(1H-indol-3-yl)-5,7-dimethoxy-4-methylquinolin-2(1H)-one]",potentiating activity of the combinations,[13],zero
same,potentiating activity in the presence of tetracycline and of erythromycin,[12],does not exist
same,potentiating activity combined with one of the two fluoroquinolones,"[12]; norfloxacin or ciprofloxacin, strain overexpressing NorA",particularly notable
same,potentiating activity coupled to non-fluoroquinolone antibiotics,"[11]; tetracycline, oxacillin, erythromycin, vancomycin",not very effective
